This note sets out measurements from patent US5962682A, “Aryl- and hetaryl-sulfonamide derivatives, their preparation and their use as endothelin antagonists” (Hoffmann-La Roche Inc., priority 1994, dated 1999).

The term pIC50 denotes −log10 of the IC50, conventionally taken in molar units. In general, pEC50 refers to the negative decadic logarithm of the EC50, by convention in mol/L. Lower therefore signals a large EC50.

One experiment has as its target T1, ETB receptor (Homo sapiens, UniProt P24530).
T1 construct: Human placenta is homogenized in 5 mM Tris buffer; from tissue; host or cells: human placenta membranes
T1 sequence (P24530 27-442): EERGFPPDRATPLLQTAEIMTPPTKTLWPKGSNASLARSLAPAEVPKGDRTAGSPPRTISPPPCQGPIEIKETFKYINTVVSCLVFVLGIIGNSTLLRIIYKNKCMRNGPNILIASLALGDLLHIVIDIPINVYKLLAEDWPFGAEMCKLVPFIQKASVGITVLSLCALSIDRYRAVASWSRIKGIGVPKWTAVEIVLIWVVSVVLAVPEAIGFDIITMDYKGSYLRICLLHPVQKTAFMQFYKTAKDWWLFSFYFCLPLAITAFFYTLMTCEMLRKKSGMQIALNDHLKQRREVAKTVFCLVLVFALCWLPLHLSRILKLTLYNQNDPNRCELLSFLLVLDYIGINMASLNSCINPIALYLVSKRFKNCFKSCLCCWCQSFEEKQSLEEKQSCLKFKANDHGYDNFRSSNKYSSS
Briefly: Inhibition of Endothelin Binding to Human Placenta Membranes (ETB receptor). As to conditions: inhibition of 50% of the specific binding of 125I-endothelin (20 pM). The procedure:
II: Inhibition of Endothelin Binding to Human Placenta Membranes (ETB receptor) (see. Life Sci 44:1429 (1989))
Human placenta is homogenized in 5 mM Tris buffer, pH 7.4, which contains 1 mM MgCl2 and 250 mM sucrose. The homogenizate is centrifuged at 4° C. and 3000 g for 15 minutes, the supernatant containing the plasma membrane fraction is centrifuged at 72000 g for 30 minutes and the precipitate is washed with 75 mM Tris buffer, pH 7.4, which contains 25 mM MgCl2. Thereafter, precipitate obtained from in each case 10 g of original tissue is suspended in 1 ml of 75 mM Tris buffer, pH 7.4, containing 25 mM MgCl2 and 250 mM sucrose, and freeze-dried at -20° C. in 1 ml aliquots.
(§1) For the binding assay, the freeze-dried membrane preparations are thawed and, after centrifugation at 20° C. and 25000 g for 10 minutes, re-suspended in assay buffer (50 mM Tris buffer, pH 7.4, containing 25 mM MnCl2, 1 mM EDTA and 0.5% bovine serum albumin). 100 μl of this membrane suspension containing 35 μg of protein are incubated with […] ^125 I-endothelin (specific activity 2200 Ci/mMol) in assay buffer (25000 cpm, final concentration 20 pM) and 100 μl of assay buffer containing varying concentrations of test compound. The incubation is carried out at 20° C. for 2 hours or at 4° C. for 24 hours. The separation of free and membrane-bound radio-ligands is carried out by filtration over a glass fibre filter.
(§2) The inhibitory activity on ETA and ETB receptors of compounds of formula I determined in these test procedures is given in Table 1 as the IC50, i.e. as the concentration [μM] which is required to inhibit 50% of the specific binding of ^125 I-endothelin.

The target of another experiment is T2, human ETA receptors (Homo sapiens, UniProt P25101).
T2 construct: made in house
T2 sequence (P25101 21-427): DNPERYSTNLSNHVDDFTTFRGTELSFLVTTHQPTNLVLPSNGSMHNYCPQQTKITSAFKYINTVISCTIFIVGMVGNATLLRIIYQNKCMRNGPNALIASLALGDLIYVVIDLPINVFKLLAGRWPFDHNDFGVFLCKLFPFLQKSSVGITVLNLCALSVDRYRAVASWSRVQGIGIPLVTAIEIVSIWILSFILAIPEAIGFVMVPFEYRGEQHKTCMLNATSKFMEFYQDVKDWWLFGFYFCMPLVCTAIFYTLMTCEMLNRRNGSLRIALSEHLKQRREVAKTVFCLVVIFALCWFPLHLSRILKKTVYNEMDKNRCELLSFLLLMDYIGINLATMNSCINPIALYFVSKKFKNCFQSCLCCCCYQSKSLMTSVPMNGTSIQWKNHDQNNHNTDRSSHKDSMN
Briefly: Inhibition of Endothelin Binding to Recombinant ETA Receptors. As to conditions: inhibition of 50% of the specific binding of 125I-endothelin (20 pM), baculovirus-insect cell membranes. The protocol:
I: Inhibition of Endothelin Binding to Recombinant ETA Receptors
A cDNA coding for human ETA receptors of human placenta was cloned (M. Adachi, Y.-Y. Yang, Y. Furuichi and C. Miyamoto, BBRC 180, 1265-1272) and expressed in the baculovirus-insect cell system. Baculovirus-infected insect cells from a 23 l fermenter are centrifuged off (3000×g, 15 minutes, 4° C.) 60 hours after the infection, re-suspended in Tris buffer (5 mM, pH 7.4, 1 mM MgCl2) and again centrifuged. After a further re-suspension and centrifugation the cells are suspended in 800 ml of the same buffer and […] at -120° C. The cells disintegrate when the suspension in this hypotonic buffer mixture is thawed. After a repeated freeze-drying/thawing cycle the suspension is homogenized and centrifuged (25000×g, 15 minutes, 4° C.). After suspension in Tris buffer (75 mM, pH 7.4, 25 mM MgCl2, 250 mM saccharose) 1 ml aliquots (protein content about 3.5 mg/ml) are stored at -85° C.
as §1, with “5” for “35”, “with 50” for “with”
as §2

A further experiment has as its system Isolated Rat Aorta Rings. Description: Inhibition of Endothelin-Induced Contractions in Isolated Rat Aorta Rings. Format: cell-based, rat (Wistar-Kyoto). To be noted: for Kb: Rattus norvegicus, Table 2, text calls these the pA2 values, endothelin-1 contraction, endothelium removed, 37° C, 10 min preincubation, read-out: Dosage ratio (switch to the right) (converted). The protocol: III. Inhibition of Endothelin-Induced Contractions in Isolated Rat Aorta Rings
Rings with a length of 5 mm were cut out from the thorax aorta of adult Wistar-Kyoto rats. The endothelium was removed by lightly rubbing the internal surface. Each ring was immersed at 37° C. in 10 ml of Krebs-Henseleit solution in an isolated bath while gassing with 95% O2 and 5% CO2. The isometric stretching of the rings was measured. The rings were stretched to a pretension of 3 g. After incubation for 10 minutes with the test compound or vehicle cumulative dosages of endothelin-1 were added. The activity of the test compound was ascertained by the observed shift to the right of the dosage-activity curve of endothelin-1 in the presence of different concentrations of antagonist. This shift to the right (or "dose ratio", DR) corresponds to the quotient from the EC50 values of endothelin-1 in the presence and in the absence of antagonist, with the EC50 value denoting the endothelin concentration required for a half-maximum contraction.
The corresponding PA2 value, which is a measure of the activity of the test compound, was calculated using a computer programme according to the following equation from the "dose ratio" DR for each individual dosage-activity curve.
pA2 =log(DR-1)-log(antagonist-concentration)
The EC50 of endothelin in the absence of test compounds is 0.3 nM.

pEC50, pIC50: −log10 of the molar value. Where only a bound is given, the exact number is not on record here.

With `COc1cccc(Oc2c(NS(=O)(=O)c3ccc(C(C)(C)C)cc3)cc(C(=O)Nc3ccccc3)cc2OCCO)c1` [Example 89, 3-(4-tert-butylbenzenesulphonylamino)-5-(2-hydroxy-ethoxy)-4-(3-methoxy-phenoxy)-N-phenyl-benzamide], the pIC50 is 7.19 at ETB receptor and less than 4.00 on human ETA receptors.
Take `COc1ccc(Cl)c(Oc2c(NS(=O)(=O)c3ccc(C(F)(F)F)cc3)cc(C(=O)Nc3ccccc3)cc2OCCO)c1` [Example 85, 4-(2-chloro-5-methoxy-phenoxy)-3-(2-hydroxy-ethoxy)-N-phenyl-5-(4-trifluoromethyl-benzenesulphonylamino)-benzamide]: the pIC50 at ETB receptor is 7.70; on human ETA receptors it was 4.07.
The like results for `COc1cccc(Oc2c(NS(=O)(=O)c3ccc(SC)cc3)cc(C(=O)Nc3ccccc3)cc2OCCO)c1` [Example 105, 3-(2-hydroxy-ethoxy)-4-(3-methoxy-phenoxy)-5-(4-methylsulphanyl-benzenesulphonyl-amino)-N-phenyl-benzamide] were, in that order, 7.82 and less than 4.00.
On to `CCOC(=O)N1CCN(C(=O)c2cc(NS(=O)(=O)c3ccc(C(C)C)cn3)c(Oc3ccccc3OC)c(OCCOC(=O)Nc3ccccn3)c2)CC1` [Example 36, ethyl 4-{3-(5-iso-propyl-pyridine-2-sulphonylamino)-4-(2-methoxy-phenoxy)-5-[2-(pyridin-2-ylcarbamoyloxy)-ethoxy]-benzoyl}-piperazine-1-carboxylate], for which the pIC50 on ETB receptor was 6.19; at human ETA receptors, 8.70. Further, in the experiment with Isolated Rat Aorta Rings, the Kb was 6.31 nM.
The matching figures for `COc1ccccc1Oc1c(NS(=O)(=O)c2ccc(C(C)C)cn2)cc(C(=O)N2CCN(C)CC2)cc1OCCOC(=O)Nc1ccccn1` [Example 33, pyridin-2-yl-carbamic acid 2-[3-(5-isopropyl-pyridine-2-sulphonylamino)-2-(2-methoxy-phenoxy)-5-(4-methyl-piperazine-1-carbonyl)-phenoxy]-ethyl ester]: 6.36, 8.00 and 39.8 nM.
As for “endothelin: endothelin-1, contracting agonist added in cumulative dosages to rat aorta rings [reference compound]”, the negative-log EC50 (pEC50) in the experiment on Isolated Rat Aorta Rings (half-maximum contraction, absence of test compounds) was 9.52.
For the compound `COc1ccccc1Oc1c(NS(=O)(=O)c2ccc(C(C)C)cn2)cc(C(=O)N2CCOCC2)cc1OCCOC(=O)Nc1ccccn1` [Example 31, pyridin-2-yl-carbamicacid 2-[3-(5-isopropyl-pyridine-2-sulphonylamino)-2-(2-methoxy-phenoxy)-5(morpholine-4-carbonyl)-phenoxy]-ethyl ester], the pIC50 on ETB receptor was 6.07; at human ETA receptors, 8.22.
